Test [1] concerns passive cutaneous anaphylaxis (PCA). Briefly: Passive cutaneous anaphylaxis assay (PCA) in rats. To be noted: Rattus norvegicus, po, 1 h, oral 10 mg/kg, one hour before antigen, read-out: PCA Inhibition Ratio %. The test is classed as in vivo, rat (Wister strain). The method, then: (§1) The effect of the compounds (I) of the present invention in the treatment of asthma and allergic diseases were evaluated by a passive cutaneous anaphylaxis assay (PCA) in rats and by measuring anti-SRS-A action using ileus of guinea pigs.
(i) Antiserum abundant in homocytotropic antibody is prepared by the same method as Tada and Okumura did (cf. Journal of Immunology, volume 106, page 1002, […]). Thus, one mg (calculated as an amount of protein) of DNP-As (2,4-dinitrophenyl-coupled ascaris extract) prepared by methods of Strejan and Campbell (Journal of Immunology, volume 98, page 893, 1971) and of Eisen (Journal of American Chemical Society, volume 85, page 4593, 1953) and […] pertussis vaccine are administered to each paw of Wister strain rats (180 to 200 grams body weights) by dividing the dose by four. Five days later, 0.5 mg of DNP-As is adminstered into muscle of back. Eight days later from the initial immunization, blood is taken from descending aorta under anesthetizing with ether, the resulting serum is stored at -80° C. and is melted before use.
(ii) Effect of tested compounds is investigated as follows:
Anti-serum obtained by the method (i) is diluted with physiological saline solution double by double successively and 0.05 ml of each diluted solution is administered into back of Wister strain rats (140 to 160 grams body weight) subcutaneously. After 72 hours, a solution of 2 mg (calculated as protein) of DNP-As and 2.5 mg of Evand Blue dissolved in 1 ml of physiological saline solution is administered intravenously at a dose of 5 ml/kg. After thirty minutes from antigen solution administration, the animals are killed and diameters of blue spots appeared at the place where antiserum is administered are measured. The PCA test is conducted by the same method as already described using a diluted solutions of antiserum which always show 10 mm or more of spot diameters and the effect of the test compounds is judged. Thus, antiserum diluted solutions are administered to two places in back. Test compounds are administered orally at the dose of 10 mg/kg one hour before administration of antigen solution. From the skin of reacted parts of killed animals, leaked or emitted dyestuff is extracted [cf. Baeck and Steinetz: J. Pharmacol. Exp. Ther., Vol. 131, page 400 (1961)] and the amount of the dyestuff is measured. The inhibition ratio is calculated by the following expression: [formula] in which R' is an amount of dyestuff in the group treated with the test compounds and A is that in the control group.

Test [2] concerns SRS-A. In words: Anti-SRS-A action (SRS-A induced shrinkage of guinea pig ileus). Also noted: species or system guinea pig (Hartley strain male). To be noted: treated five minutes before SRS-A (20 units), 5 min; for SRS-A Inhibition Ratio % 10^-6 M: 1 µM; for SRS-A Inhibition Ratio % 10^-7 M: 0.1 µM. As for the experimental part:
as §1
Anti-SRS-A action (An anti-action against slow reacting substance of anaphylaxie)
Hartley strain male guinea pigs (300 to 350 grams body weight) are killed and 1.0 to 1.5 cm of ileus is immediately excised from ileocecal parts and is suspended in 10 ml of Tyrode solution (95% O2 -5% CO2 saturation) containing 10^-7 g/ml of atropine and 10^-6 g/ml of pyrilamine. SRS-A (20 units) (the amount of SRS-A showing the same shrinkage as 5 ng of histamine is defined as one unit) prepared by using sensitized guinea pig lung is given to cause shrinkage there. Then antagonistic action of test compounds treated five minutes ago against the shrinkage is measured and recorded via isotonic transducer. [formula] in which A' is a height of shrinkage of SRS-A + test compound and A is that of SRS-A.

The structures appear in SMILES notation.

On to `CCCCN(CC)C(=O)c1cccc2c(=O)c(C)c(-c3ccc(C(C)C)cc3)oc12` [Example 50, 4'-isopropyl-3-methylflavone-8-carboxylic acid N-n-butyl-N-ethylamide], for which the inhibition in vivo at 10 mg/kg in test [1] was determined as 21.4%. Moreover, in test [2], the “SRS-A Inhibition Ratio % 10^-6 M” value was found to be 100% and the “SRS-A Inhibition Ratio % 10^-7 M” value worked out at 70.0%.
Take `CCOC(=O)c1cccc2c(=O)c(C)c(-c3ccc(Cl)cc3)oc12` [Example 71, ethyl 4'-chloro-3-methylflavone-8-carboxylate]: the inhibition in vivo at 10 mg/kg in test [1] was 36.9%. In addition, in test [2], the “SRS-A Inhibition Ratio % 10^-6 M” value was determined as 10.3% and the “SRS-A Inhibition Ratio % 10^-7 M” value turned out to be 6.0%.
As to `CCN(CC)C(=O)c1cccc2c(=O)c(C)c(-c3cc(Cl)ccc3Cl)oc12` [Example 78, 2',5'-dichloro-3-methylflavone-8-carboxylic acid N,N-diethylamide], the inhibition in vivo at 10 mg/kg in test [1] amounted to 26.3%. In addition, in test [2], the “SRS-A Inhibition Ratio % 10^-6 M” value came to 79.3% and the “SRS-A Inhibition Ratio % 10^-7 M” value is 5.6%.
`CCOC(=O)c1cccc2c(=O)c(C)c(-c3ccc(C(C)(C)C)cc3)oc12` [Example 56, ethyl 4'-tertiary butyl-3-methylflavone-8-carboxylate]: the inhibition in vivo at 10 mg/kg in test [1] came to 20.2%. Also, in test [2], the “SRS-A Inhibition Ratio % 10^-6 M” value came to 44.9% and the “SRS-A Inhibition Ratio % 10^-7 M” value was 19.0%.
In the case of `CCN(CC)C(=O)c1cccc2c(=O)c(C)c(-c3ccccc3OC)oc12` [Example 12, 2'-methoxy-3-methylflavone-8-carboxylic acid N,N-diethylamide], the inhibition in vivo at 10 mg/kg in test [1] is 19.2%. Also, in test [2], the “SRS-A Inhibition Ratio % 10^-6 M” value is reported as 52.4% and the “SRS-A Inhibition Ratio % 10^-7 M” value came out at 8.3%.
Turning to `CCNC(=O)c1cccc2c(=O)c(C)c(-c3ccccc3OCC)oc12` [Example 19, 2'-ethoxy-3-methylflavone-8-carboxylic acid N-ethylamide], the inhibition in vivo at 10 mg/kg in test [1] stood at 16%. In addition, in test [2], the “SRS-A Inhibition Ratio % 10^-6 M” value was 50.0% and the “SRS-A Inhibition Ratio % 10^-7 M” value is recorded as 30.0%.
For `CCOC(=O)c1cccc2c(=O)c(C)c(-c3cc(Cl)ccc3Cl)oc12` [Example 77, ethyl 2',5'-dichloro-3-methylflavone-8-carboxylate], in that order: 16.3%, 67.4% and 6.9%.
With `CCCCN(CCCC)C(=O)c1cccc2c(=O)c(C)c(-c3ccc(C(C)C)cc3)oc12` [Example 49, 4'-isopropyl-3-methylflavone-8-carboxylic acid N,N-di-n-butylamide], in test [1], the inhibition in vivo at 10 mg/kg is 20%. Moreover, in test [2], the “SRS-A Inhibition Ratio % 10^-6 M” value stood at 82.8% and the “SRS-A Inhibition Ratio % 10^-7 M” value is 55.6%.
Consider `COC(=O)c1cccc2c(=O)c(C)c(-c3ccccc3)oc12` [Example 8, Methyl 3-methylflavone-8-carboxylate], for which, in test [1], the inhibition in vivo at 10 mg/kg stood at 17.4%. Besides, in test [2], the “SRS-A Inhibition Ratio % 10^-6 M” value came to 64.9% and the “SRS-A Inhibition Ratio % 10^-7 M” value amounted to 45.0%.
Regarding `CCOC(=O)c1cccc2c(=O)c(C)c(-c3cccc(OC)c3OC)oc12` [Example 24, ethyl 2'.3'-dimethoxy-3-methylflavone-8-carboxylate], in test [1], the inhibition in vivo at 10 mg/kg came to 20.4%. Further, in test [2], the “SRS-A Inhibition Ratio % 10^-6 M” value is 100% and the “SRS-A Inhibition Ratio % 10^-7 M” value was 18.2%.
As for `CCN(CC)C(=O)c1cccc2c(=O)c(C)c(-c3ccc(C)cc3C)oc12` [Example 41, 2',3,4'-trimethylflavone-8-carboxylic acid N,N-diethylamide], the inhibition in vivo at 10 mg/kg in test [1] is 31.4%. Moreover, in test [2], the “SRS-A Inhibition Ratio % 10^-6 M” value is listed as 54.1% and the “SRS-A Inhibition Ratio % 10^-7 M” value was found to be 23.4%.
As to `Cc1c(-c2ccccc2Cl)oc2c(C(=O)OCCO)cccc2c1=O` [Example 69, beta-hydroxyethyl 2'-chloro-3-methylflavone-8-carboxylate], in test [1], the inhibition in vivo at 10 mg/kg came to 14.3%. Further, in test [2], the “SRS-A Inhibition Ratio % 10^-6 M” value is listed as 55.3% and the “SRS-A Inhibition Ratio % 10^-7 M” value stood at 9.8%.
Take `CCCCCc1ccc(-c2oc3c(C(=O)OCC)cccc3c(=O)c2C)cc1` [Example 59, ethyl 3-methyl-4'-n-pentylflavone-8-carboxylate]: in test [1], the inhibition in vivo at 10 mg/kg was 19.4%. Also, in test [2], the “SRS-A Inhibition Ratio % 10^-6 M” value is listed as 38.1% and the “SRS-A Inhibition Ratio % 10^-7 M” value worked out at 9.8%.
On to `CCOC(=O)c1cccc2c(=O)c(C)c(-c3ccccc3OC(C)C)oc12` [Example 21, ethyl 2'-isopropoxy-3-methylflavone-8-carboxylate], for which the inhibition in vivo at 10 mg/kg in test [1] came to 17.8%. In test [2], the “SRS-A Inhibition Ratio % 10^-6 M” value was 31.0% and the “SRS-A Inhibition Ratio % 10^-7 M” value came to 19.8%.
On to `CCN(CC)C(=O)c1cccc2c(=O)c(C)c(-c3ccc(OC)c(OC)c3OC)oc12` [Example 30, 2',3',4'-trimethoxy-3-methylflavone-8-carboxylic acid N,N-diethylamide], for which, in test [1], the inhibition in vivo at 10 mg/kg was 16.3%. In addition, in test [2], the “SRS-A Inhibition Ratio % 10^-6 M” value came out at 31.0% and the “SRS-A Inhibition Ratio % 10^-7 M” value was 18.0%.
For `CCN(CC)C(=O)c1cccc2c(=O)c(C)c(-c3ccc(OC)cc3OC)oc12` [Example 28, 2',4'-dimethoxy-3-methylflavone-8-carboxylic acid N,N-diethylamide], the inhibition in vivo at 10 mg/kg in test [1] was 20.1%. For the same compound, in test [2], the “SRS-A Inhibition Ratio % 10^-6 M” value amounted to 63.2% and the “SRS-A Inhibition Ratio % 10^-7 M” value is listed as 23.0%.
Turning to `CCOC(=O)c1cccc2c(=O)c(C)c(-c3ccc(Cl)cc3Cl)oc12` [Example 80, ethyl 2',4'-dichloro-3-methylflavone-8-carboxylate], the inhibition in vivo at 10 mg/kg in test [1] amounted to 21.3%. Also, in test [2], the “SRS-A Inhibition Ratio % 10^-6 M” value is 61.7% and the “SRS-A Inhibition Ratio % 10^-7 M” value was 17.6%.
`CCOc1ccccc1-c1oc2c(C(=O)O)cccc2c(=O)c1C` [Example 16, 2'-ethoxy-3-methylflavone-8-carboxylic acid]: the inhibition in vivo at 10 mg/kg in test [1] was determined as 18.6%. Further, in test [2], the “SRS-A Inhibition Ratio % 10^-6 M” value came out at 14.8% and the “SRS-A Inhibition Ratio % 10^-7 M” value is listed as 10.4%.
On to `Cc1ccc(-c2oc3c(C(=O)OCCO)cccc3c(=O)c2C)c(C)c1` [Example 42, beta-hydroxyethyl 2'.3.4'-trimethylflavone-8-carboxylate], for which the inhibition in vivo at 10 mg/kg in test [1] stood at 19.8%. Also, in test [2], the “SRS-A Inhibition Ratio % 10^-6 M” value came out at 27.6% and the “SRS-A Inhibition Ratio % 10^-7 M” value is on record as 10.3%.
`CCOC(=O)c1cccc2c(=O)c(C)c(-c3ccccc3Cl)oc12` [Example 67, ethyl 2'-chloro-3-methylflavone-8-carboxylate]: the inhibition in vivo at 10 mg/kg in test [1] was found to be 19.8%. Besides, in test [2], the “SRS-A Inhibition Ratio % 10^-6 M” value is 100% and the “SRS-A Inhibition Ratio % 10^-7 M” value amounted to 42.9%.
Take `Cc1ccc(-c2oc3c(C(=O)O)cccc3c(=O)c2C)c(C)c1` [Example 39, 2',3,4'-trimethylflavone-8-carboxylic acid]: the inhibition in vivo at 10 mg/kg in test [1] came to 37%. In test [2], the “SRS-A Inhibition Ratio % 10^-6 M” value was 5.3% and the “SRS-A Inhibition Ratio % 10^-7 M” value was 3.2%.
Regarding `CCN(CC)C(=O)c1cccc2c(=O)c(C)c(-c3ccccc3OC(C)C)oc12` [Example 22, 2'-isopropoxy-3-methylflavone-8-carboxylic acid N,N-diethylamide], in test [1], the inhibition in vivo at 10 mg/kg is 16.1%. In test [2], the “SRS-A Inhibition Ratio % 10^-6 M” value is reported as 66.7% and the “SRS-A Inhibition Ratio % 10^-7 M” value is reported as 40.0%.
For `CCNC(=O)c1cccc2c(=O)c(C)c(-c3ccc(C(C)C)cc3)oc12` [Example 51, 4'-isopropyl-3-methylflavone-8-carboxylic acid N-ethylamide], in that order: 19%, 75.0% and 17.5%.

The values are drawn from patent US4594345A, “Methylflavone-8-carboxylates” (Nippon Shinyaku Co. Ltd., priority 1982, dated 1986).
